US9868707B2, “Small molecule agonists of neurotensin receptor 1” (SANFORD-BURNHAM MEDICAL RESEARCH INSTITUTE, priority 2012, dated 2018)
Like-named read-outs stand apart in the source and are kept apart here.

Target: NTR1 (Homo sapiens, UniProt P30989)
Assay: NTR1 high-content imaging (HCS) dose response, NTR1-U2OS cells
Type: cell-based
Design: host or cells: U2OS osteosarcoma
Conditions: n = 4 unless otherwise noted; for EC50: Ave. ± S.E.M., read-out: HCS NTR1 Potency EC50
Source text: The cell lines utilized in the high-content imaging assays, which include the NTR1-, NTR2-, and GPR35-U2OS osteosarcomas, were obtained from the laboratory of Dr. Lawrence Barak at the Duke University Medical Center. The media used in the culture of the cell lines, as well as the assays themselves, consisted of Minimum Essential Medium (15-010-CM) and L-glutamine (25-005-CL) from Cellgro/Mediatech (Manassas, Va.), fetal bovine serum (SH30396.03) from Hyclone (Logan, Utah), penicillin-streptomycin solution (PS-20) from Omega Scientific in Tarzana, Calif., G418 (ant-gn-1) from Invivogen (San Diego, Calif.), and zeocin (R250-01) from Invitrogen (Carlsbad, Calif.). Cell lines were cultured in T225 tissue culture flasks (431082) supplied by Corning (Corning, N.Y.). Additional reagents employed include Dulbecco's Phosphate-Buffered Saline (DPBS) (21-031CV) from Cellgro/Mediatech, Trypsin-EDTA 0.05% (25300) from Invitrogen, paraformaldehyde (30528954) from Acros Organics (Geel, Belgium), Hoechst 33342 (H3570) from Invitrogen. The high-content assays were run in 1536-well plates (29326) supplied by Aurora Biotechnology (Poway, Calif.) and utilized aluminum plate seals (T592100) from E&K Scientific (Santa Clara, Calif.).
The neurotensin 1 peptide (N6383) from Sigma-Aldrich (St. Louis, Mo.) was used as a positive control in the NTR1 primary HCS assay. For the NTR2 selectivity assay, the non-specific, small molecule 3-(4-fluorophenyl)-7,8-dimethoxy-5-(4-methylbenzyl)-5H-pyrazolo[4,3-c]quinolone which was synthesized internally was used as a positive control. The GPR35 selectivity screen utilized zaprinast (ALX430-020-M010) from Alexis Biochemicals (Farmingdale, N.Y.) as a control.
The high-content imaging based NTR1 primary screen in 1536-well format was utilized to assay the MLSMR library of chemical entities in the following manner. On day one, 4 uL of a cell suspension containing 350,000 NTR1-U2OS cells per mL is added to each well of a 1536-well assay plate. Cells are plated in MEM medium containing 2.5% Fetal Bovine Serum, 1% Penicillin/Streptomycin solution, 1% L-Glutamine, 400 ug/mL G418, and 200 ug/mL Zeocin. The assay plates are then incubated overnight at 37° C., under 5% CO2. Following the overnight incubation, a volume of 60 nL of the compounds at 2 mM in DMSO (final 20 μM, 1% DMSO) was transferred to columns 5-48 of the assay plates using a LabCyte Echo Liquid Handler. Next, 60 nL of DMSO were dispensed to columns 1-4, which served as the positive and neutral control wells. […] The assay plates were centrifuged on an Eppendorf 5810 centrifuge at 1000 rpm for 1 min to ensure even liquid levels in the wells of the assay plates. The assay plates were then returned to the incubator for 1 hour. Following the hour-long incubation at 37° C., the cells in each well were fixed with 4 uL of 6% paraformaldehyde added with a Multidrop Combi. The assay plates were centrifuged as before and incubated at room temperature for 1 hour. On the Kalypsys, plates were then aspirated down to 2.5 uL per well and washed twice with 11 uL per well of DPBS, followed by a final aspiration to 2.5 uL per well. On the Combi dispenser, 5 uL of 5 ug/mL Hoechst 33342 diluted in DPBS was added to each well of assay plates. The plates were again centrifuged as previously described, sealed, and incubated for at least 1 hour prior to being loaded on a PerkinElmer Opera QEHS.
Image acquisition was performed with a 45 plate capacity loader/stacker and the following settings: 40×0.6 NA air objective, acquisition camera set to 2-by-2 binning for an image size of 688 by 512 pixels, beta-arrestin-GFP acquired using 488 nm laser excitation and 540/75 nm emission filters, DAPI (nuclei) using 365 nm Xenon lamp excitation and 450/50 nm emission filters, 3 fields per well. Image analysis was performed using the Acapella Spot Detection Algorithm. For analysis settings and the metrics employed in the data analyses, please refer to supplemental information.

[1] = read-out: HCS NTR1 Potency Emax

Sequence of NTR1 (P30989 whole entry, species assumed): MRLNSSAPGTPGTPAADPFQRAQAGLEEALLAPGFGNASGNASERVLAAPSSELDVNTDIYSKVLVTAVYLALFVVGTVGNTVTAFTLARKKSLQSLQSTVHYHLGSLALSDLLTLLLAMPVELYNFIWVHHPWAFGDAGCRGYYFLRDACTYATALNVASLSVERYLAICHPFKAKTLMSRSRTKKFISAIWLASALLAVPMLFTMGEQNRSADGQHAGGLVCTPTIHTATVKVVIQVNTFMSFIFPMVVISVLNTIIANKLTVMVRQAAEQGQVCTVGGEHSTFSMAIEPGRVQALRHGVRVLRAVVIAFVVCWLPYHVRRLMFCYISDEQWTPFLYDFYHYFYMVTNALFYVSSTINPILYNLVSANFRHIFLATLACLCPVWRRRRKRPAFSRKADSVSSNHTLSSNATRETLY

With `CCc1nc(N2CCN(c3ccccc3OC)CC2)c2cc(OC)c(OC)cc2n1` [Compound 310, 2-ethyl-6,7-dimethoxy-4-(4-(2-methoxyphenyl)piperazin-1-yl)quinazoline] the EC50 was 42.6 ± 4.4 µM and the Emax [1] was 100%.

In the case of `COc1cc2nc(C3CC3)nc(N3CCN(C(=O)c4ccccc4OC)CC3)c2cc1OC` [Compound 345, (4-(2-cyclopropyl-6,7-dimethoxyquinazolin-4-yl)piperazin-1-yl)(2-methoxyphenyl)methanone], the EC50 is reported as 67.7 ± 5.5 µM and the Emax [1] is reported as 100%.

With `COc1cc2nc(C3CC3)nc(N3CCN(c4ccccc4Cl)CC3)c2cc1OC` [Compound 340, 4-(4-(2-chlorophenyl)piperazin-1-yl)-2-cyclopropyl-6,7-dimethoxyquinazoline] the EC50 was 19.8 ± 2.2 µM and the Emax [1] was 100%.

`COc1ccc(N2CCN(c3nc(C4CCC4)nc4cc(OC)c(OC)cc34)CC2)cc1` [Compound 329, 2-cyclobutyl-6,7-dimethoxy-4-(4-(4-methoxyphenyl)piperazin-1-yl)quinazoline] was tested, and the EC50 was 46.4 ± 17.6 µM and the Emax [1] was 100%.

`COc1ccccc1N1CCN(c2nc(C3CCC3)nc3cc4c(cc23)OCO4)CC1` [Compound 337, 6-cyclobutyl-8-(4-(2-methoxyphenyl)piperazin-1-yl)-[1,3]dioxolo[4,5-g]quinazoline] gave an EC50 of 33.7 ± 16.7 µM and an Emax [1] of 87%.

`COc1cc2nc(C3CCC3)nc(N3CCN(c4ccccc4F)CC3)c2cc1OC` [Compound 324, 2-cyclobutyl-4-(4-(2-fluorophenyl)piperazin-1-yl)-6,7-dimethoxyquinazoline] was tested, and the EC50 was 17.7 ± 1 µM and the Emax [1] was 97.2%.

`COc1ccccc1CN1CCN(c2nc(C3CC3)nc3cc(OC)c(OC)cc23)CC1` [Compound 343, 2-cyclopropyl-6,7-dimethoxy-4-(4-(2-methoxybenzyl)piperazin-1-yl)quinazoline] showed an EC50 of 34.9 ± 4.4 µM and an Emax [1] of 100%.

Work on `COc1ccc2nc(C3CCC3)nc(N3CCN(c4ccccc4OC)CC3)c2c1` [Compound 334, 2-cyclobutyl-6-methoxy-4-(4-(2-methoxyphenyl)piperazin-1-yl)quinazoline] yielded an EC50 of 10 ± 1.57 µM and an Emax [1] of 102%.

`COc1cc2nc(CC(C)C)nc(N3CCN(c4ccccc4OC)CC3)c2cc1OC` [Compound 313, 2-isobutyl-6,7-dimethoxy-4-(4-(2-methoxyphenyl)piperazin-1-yl)quinazoline] showed an EC50 of 15.1 ± 1.5 µM and an Emax [1] of 96.3%.

`COc1cc2nc(-c3ccccc3)nc(N3CCN(c4ccc(F)cc4)CC3)c2cc1OC` [6,7-di-OMe; phenyl; 4-F, 2-phenyl-6,7-dimethoxy-4-(4-(4-fluorophenyl)piperazin-1-yl)quinazoline] showed an EC50 greater than 80 µM.

`COc1ccc2c(N3CCN(c4ccccc4OC)CC3)nc(C3CCC3)nc2c1` [Compound 335, 2-cyclobutyl-7-methoxy-4-(4-(2-methoxyphenyl)piperazin-1-yl)quinazoline] gave an EC50 of 30 µM and an Emax [1] of 112%.

In the case of `COc1cc2nc(C(C)C)nc(N3CCN(c4ccccc4OC)CC3)c2cc1OC` [Compound 312, 2-isopropyl-6,7-dimethoxy-4-(4-(2-methoxyphenyl)piperazin-1-yl)quinazoline], the EC50 is reported as 7.7 ± 1 µM and the Emax [1] is reported as 100%.

For `CCOc1ccccc1N1CCN(c2nc(C3CC3)nc3cc(OC)c(OC)cc23)CC1` [Compound 339, 2-cyclopropyl-4-(4-(2-ethoxyphenyl)piperazin-1-yl)-6,7-dimethoxyquinazoline], the EC50 was 6.1 ± 0.4 µM and the Emax [1] was 98.4%.

In the case of `COc1cc2nc(C3CCC3)nc(N3CCN(c4ccccc4[N+](=O)[O-])CC3)c2cc1OC` [Compound 327, 2-cyclobutyl-6,7-dimethoxy-4-(4-(2-nitrophenyl)piperazin-1-yl)quinazoline], the EC50 is reported as 75.4 ± 1.1 µM and the Emax [1] is reported as 100%.

`COc1ccc(N2CCN(c3nc(C4CCC4)nc4cc(OC)c(OC)cc34)CC2)c(OC)c1` [Compound 330, 2-cyclobutyl-4-(4-(2,4-dimethoxyphenyl)piperazin-1-yl)-6,7-dimethoxyquinazoline] showed an EC50 of 22.8 ± 0.4 µM and an Emax [1] of 103%.

`COc1cc2nc(Cc3ccccc3)nc(N3CCN(c4ccccc4OC)CC3)c2cc1OC` [Compound 309, 2-benzyl-6,7-dimethoxy-4-(4-(2-methoxyphenyl)piperazin-1-yl)quinazoline] gave an EC50 of 13.8 ± 3.4 µM and an Emax [1] of 81.9%.

For `COc1ccc2nc(C3CC3)nc(N3CCN(c4ccccc4OC)CC3)c2c1` [Compound 338, 2-cyclopropyl-6-methoxy-4-(4-(2-methoxyphenyl)piperazin-1-yl)quinazoline], the EC50 was 4.1 ± 0.5 µM and the Emax [1] was 95.7%.

`COc1cc2nc(C3CCC3)nc(N3CCN(c4ccccc4Cl)CC3)c2cc1OC` [Compound 325, 4-(4-(2-chlorophenyl)piperazin-1-yl)-2-cyclobutyl-6,7-dimethoxyquinazoline] was tested, and the EC50 was 12.2 ± 2.5 µM and the Emax [1] was 70.5%.

Work on `CCCc1nc(N2CCN(c3ccccc3OC)CC2)c2cc(OC)c(OC)cc2n1` [Compound 311, 6,7-dimethoxy-4-(4-(2-methoxyphenyl)piperazin-1-yl)-2-propylquinazoline] yielded an EC50 of 16.6 ± 1.7 µM and an Emax [1] of 100%.

Compound `COc1cccc(N2CCN(c3nc(C4CCC4)nc4cc(OC)c(OC)cc34)CC2)c1` [Compound 328, 2-cyclobutyl-6,7-dimethoxy-4-(4-(3-methoxyphenyl)piperazin-1-yl)quinazoline] has an EC50 of 17.2 ± 1 µM and an Emax [1] of 74.9%.

Compound `COc1cc2nc(C3CCC3)nc(N3CCN(c4ccccc4C)CC3)c2cc1OC` [Compound 323, 2-cyclobutyl-6,7-dimethoxy-4-(4-(o-tolyl)piperazin-1-yl)quinazoline] has an EC50 of 14.9 ± 3.2 µM and an Emax (heading: HCS NTR1 Potency Emax) of 91.6%.

Work on `COc1cc2nc(C3CC3)nc(N3CCN(C(=O)c4ccccc4)CC3)c2cc1OC` [Compound 344, (4-(2-cyclopropyl-6,7-dimethoxyquinazolin-4-yl)piperazin-1-yl)(phenyl)methanone] yielded an EC50 of 45.3 µM and an Emax [1] of 100%.

Work on `COc1cc2nc(C3CC3)nc(N3CCN(Cc4ccc(C)cc4)CC3)c2cc1OC` [Compound 342, 2-cyclopropyl-6,7-dimethoxy-4-(4-(4-methylbenzyl)piperazin-1-yl)quinazoline] yielded an EC50 of 25 ± 3.2 µM.

For `COc1ccccc1N1CCN(c2nc(C3CCC3)nc3ccccc23)CC1` [Compound 336, 2-cyclobutyl-4-(4-(2-methoxyphenyl)piperazin-1-yl)quinazoline], the EC50 was 22.6 ± 3.9 µM and the Emax [1] was 100%.

Compound `COc1cc2nc(C3CCCC3)nc(N3CCN(c4ccccc4OC)CC3)c2cc1OC` [Compound 316, 2-cyclopentyl-6,7-dimethoxy-4-(4-(2-methoxyphenyl)piperazin-1-yl)quinazoline] has an EC50 of 5.8 ± 1.5 µM and an Emax [1] of 92.8%.

`COc1cc2nc(C3CCC3)nc(N3CCN(c4c(C)cccc4C)CC3)c2cc1OC` [Compound 331, 2-cyclobutyl-4-(4-(2,6-dimethylphenyl)piperazin-1-yl)-6,7-dimethoxyquinazoline] showed an EC50 of 61.2 ± 5.2 µM and an Emax [1] of 100%.

In the case of `COc1cc2nc(CCN3CCN(c4ccccc4OC)CC3)nc(N3CCN(c4ccccc4OC)CC3)c2cc1OC` [Compound 319, 6,7-dimethoxy-4-(4-(2-methoxyphenyl)piperazin-1-yl)-2-(2-(4-(2-methoxyphenyl)piperazin-1-yl)ethyl)quinazoline], the EC50 is reported as 25.9 ± 13.7 µM and the Emax [1] is reported as 74.3%.

`COc1cc2nc(CC3CC3)nc(N3CCN(c4ccccc4OC)CC3)c2cc1OC` [Compound 317, 2-(cyclopropylmethyl)-6,7-dimethoxy-4-(4-(2-methoxyphenyl)piperazin-1-yl)quinazoline] was tested, and the EC50 was 14.2 ± 1.2 µM and the Emax [1] was 96.9%.
